Test results: patent publication US20100210555A1, “USE OF A LAMININ PEPTIDE AS A THERAPEUTIC AGENT” (priority 2007, published 2010)
Where no end group is shown, it is not given here.

Experiments:
HCMV strain AD169 = assay: HCMV plaque formation assay in MRC-5 cells; settings: for inhibition of HCMV plaque formation as compared to the virus control: 10 micrograms per ml, 7-10 days
[1] = system: hepatitis B virus (HBV) ayw strain; assay: HBV experimental assay system (HepG2-2.2.15, TaqMan PCR of secreted HBV DNA); assay type: cell-based; settings: 10 micrograms per ml; HepG2-2.2.15 cells, six days
From the text: HepG2-2.2.15 is a stable cell line containing the hepatitis B virus (HBV) ayw strain genome (ATCC Cat. No. CRL-11997). Antiviral compounds blocking any late step of viral replication such as transcription, translation, pregenome encapsidation, reverse transcription, particle assembly and release can be identified and characterized using this cell line. In this assay, an active compound will reduce the production of secreted HBV from cells, measured by utilizing real time quantitative PCR (TaqMan) assay to directly and accurately measure HBV DNA copies.
HepG2-2.2.15 cells were plated in 96-well microtiter plates. After 16-24 hours the confluent monolayer of HepG2-2.2.15 cells was washed and the medium was replaced with complete medium containing test peptides—10 micrograms per ml—in duplicate. […] Six days following the initial administration of the peptides, the cell culture supernatants was collected, treated with pronase and DNAse and then used in a real-time quantitative TaqMan PCR assay. The PCR-amplified HBV DNA was detected in real-time by monitoring increases in fluorescence signals that result from the exonucleolytic degradation of a quenched fluorescence probe molecule that hybridizes to the mplified HBV DNA. […] Antiviral activity was calculated from the reduction in HBV DNA levels (% virus control). […]

HUVEC = assay: Endothelial tube formation assay; assay type: cell-based, human; settings: 10 micrograms per ml, 20 hours, combination peptide 1:peptide 2 0.95 mole: 1.05 mole
From the text: Positive control was vehicle only.

spleen cells = assay: Th1/Th2 cytokine profiling assay; assay type: cell-based, Balb/c mice; settings: 10 micrograms per ml; Ovalbumin restimulation, 72 hours
[2] = system: Primary Human endothelial cells (HUVEC); assay: Endothelial cell migration assay; assay type: cell-based; settings: 10 micrograms per ml, 22 hours, combination peptide 1:peptide 2 0.95 mole: 1.05 mole

| Compound | antiviral activity of positive control compound (HCMV) (HCMV strain AD169; positive control, HCMV AD169) | inhibition of HBV replication as compared to the virus control infection [1] | inhibition of the tube formation of endothelial cells (HUVEC) [%] | inhibition of HCMV plaque formation as compared to the virus control (HCMV strain AD169) | IFNγ spleen cells; TH1 response (% of control) (spleen cells) | IL-2 spleen cells (% of control) (spleen cells) | IL-4 spleen cells; TH2 response (% of control) (spleen cells) | IL-5 spleen cells; TH2 response (% of control) (spleen cells) | TNF-a spleen cells; TH1 response (% of control) (spleen cells) | inhibition of the migration of human endothelial cells [2] [%] |
| --- | --- | --- | --- | --- | --- | --- | --- | --- | --- | --- |
| Nc1nc(O)c2ncn(COC(CO)CO)c2n1 [Ganciclovir, reference compound] | expected levels of antiviral activity | – | – | – | – | – | – | – | – | – |
| Cys-Ser-Arg-Ala-Arg-Lys-Gln-Ala-Ala-Ser-Ile-Lys-Val-Ala-Val-Ser-Ala-Asp-Arg-OH (CSRARKQAASIKVAVSADR-OH) [peptide 1] | – | 22.1% | 30 | did not inhibit | 88.8 % of control | 66.8 % of control | 148.8 % of control | 64.5 % of control | 101.0 % of control | 32 |
| Pro-His-Pro-Phe-His-Leu-Phe-Val-Tyr-OH (PHPFHLFVY-OH) [peptide 2] | – | no effect | 27 | did not inhibit | 76.6 % of control | 70.7 % of control | 113.5 % of control | 57.6 % of control | 111.8 % of control | 33 |
